What was measured:
Assay type in all cases: cell-based
[1] = tested on: Escherichia coli (Ec) ATCC 8739; assay: Challenge Test (artificial contamination) of cosmetic formula, E. coli; conditions: 2% compound in cosmetic formula; inoculation about 10^6 cfu/gram; 7 days contact at 22° C.±2° C. in darkness; <200 cfu = sensitivity threshold
Description: (§1) The antimicrobial efficacy of a compound of formula (I) was evaluated via the Challenge Test or artificial contamination method. The method of the challenge test consists of an artificial contamination of the sample with collection microbial strains (bacteria, yeasts and moulds) and evaluation of the number of revivable microorganisms seven days after the inoculation. […] [table] […] After 7 days of contact time between the microorganisms and the product at 22° C.±2° C. and in darkness, decimal dilutions are performed and the number of revivable microorganisms remaining in the product is counted.

[2] = tested on: Pseudomonas aeruginosa (Pa) ATCC 19429; assay: Challenge Test (artificial contamination) of cosmetic formula, P. aeruginosa; conditions: 2% compound in cosmetic formula; inoculation about 10^6 cfu/gram; 7 days contact at 22° C.±2° C. in darkness; <200 cfu = sensitivity threshold
Description: as §1

[3] = tested on: Enterococcus faecalis (Ef) ATCC 33186; assay: Challenge Test (artificial contamination) of cosmetic formula, E. faecalis; conditions: 2% compound in cosmetic formula; inoculation about 10^6 cfu/gram; 7 days contact at 22° C.±2° C. in darkness; <200 cfu = sensitivity threshold
Description: as §1

[4] = tested on: Candida albicans (Ca) ATCC 10231; assay: Challenge Test (artificial contamination) of cosmetic formula, C. albicans; conditions: 2% compound in cosmetic formula; inoculation about 10^6 cfu/gram; 7 days contact at 22° C.±2° C. in darkness; <200 cfu = sensitivity threshold
Description: as §1

[5] = tested on: Aspergillus niger (An) ATCC 6275; assay: Challenge Test (artificial contamination) of cosmetic formula, A. niger; conditions: 2% compound in cosmetic formula; inoculation about 10^6 cfu/gram; 7 days contact at 22° C.±2° C. in darkness
Description: The antimicrobial efficacy of a compound of formula (I) was evaluated via the Challenge Test or artificial contamination method. The method of the challenge test consists of an artificial contamination of the sample with collection microbial strains (bacteria, yeasts and moulds) and evaluation of the number of revivable microorganisms seven days after the inoculation. […] [table] The gram-negative bacteria (Escherichia coli and Pseudomonas aeruginosa), gram-positive bacteria (Enterococcus faecalis), yeast (Candida albicans) and mould (Aspergillus niger) are seeded in the subculturing medium, respectively, the day before the inoculation for the bacteria and the yeast, and five days before the inoculation for the mould. for the mould, the spores are collected by washing the agar with 6 to 7 ml of harvesting solution and the suspension is recovered in a sterile tube or flask. After homogenizing the microbial suspension, 0.2 ml of inoculum is introduced into each pill bottle (the suspensions are used pure: between 1×10^8 and 3×10^8 cfu per ml) and the microbial suspension in the 20 g of product (=cosmetic formula) is homogenized thoroughly using a spatula. […] After 7 days of contact time between the microorganisms and the product at 22° C.±2° C. and in darkness, decimal dilutions are performed and the number of revivable microorganisms remaining in the product is counted.

CCOc1cc(CCC(C)=O)ccc1O [Compound]
No. of cfu/gram of product at T7 days, E. coli [1]: <200 cfu/gram of product
No. of cfu/gram of product at T7 days, P. aeruginosa [2]: <200 cfu/gram of product
No. of cfu/gram of product at T7 days, E. faecalis [3]: <200 cfu/gram of product
No. of cfu/gram of product at T7 days, C. albicans [4]: <200 cfu/gram of product
No. of cfu/gram of product at T7 days, A. niger [5]: 3.4 × 10^5 cfu/gram of product

From patent publication US11306051B2, “Use of vanillin derivatives as a preservative, preservation method, compounds, and composition” (L'OREAL, priority 2009, dated 2022)
